Here are results for 16 compounds from patent US10889581B2, “Cyclopropyl fused thiazine derivatives as beta-secretase inhibitors and methods of use” (AMGEN INC., priority 2016, dated 2021).

A word on the IC50: it is the concentration at which inhibition is half-maximal.

Each structure is given as a SMILES string.

Assay [1] deals with T1, BACE1 (Homo sapiens (Human), UniProt P56817). In words: In vitro enzymatic BACE1 FRET assay. It counts as biochemical. The note with it: pH 4.5, read-out: BACE1 Enzyme IC50.
Target sequence in this assay (P56817 46-501): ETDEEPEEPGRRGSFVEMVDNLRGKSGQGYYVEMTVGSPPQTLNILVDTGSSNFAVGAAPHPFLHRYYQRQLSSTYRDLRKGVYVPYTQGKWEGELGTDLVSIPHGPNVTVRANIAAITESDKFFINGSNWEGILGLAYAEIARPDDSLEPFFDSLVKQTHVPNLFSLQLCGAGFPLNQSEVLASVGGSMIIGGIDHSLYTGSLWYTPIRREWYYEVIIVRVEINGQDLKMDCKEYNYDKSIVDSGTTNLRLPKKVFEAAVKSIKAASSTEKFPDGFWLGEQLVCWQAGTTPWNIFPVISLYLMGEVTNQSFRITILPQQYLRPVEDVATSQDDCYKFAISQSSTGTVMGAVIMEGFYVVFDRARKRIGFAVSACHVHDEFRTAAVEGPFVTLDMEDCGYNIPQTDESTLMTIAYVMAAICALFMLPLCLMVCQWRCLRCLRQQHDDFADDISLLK
Assay [2] concerns the target T1, BACE1. In words: In vitro BACE1 cell-based assay (Aβ40 in conditioned medium of cells stably expressing APP, HTRF). As for the experimental part: In Vitro BACE1 Cell-Based Assay
The cell-based assay measures inhibition or reduction of Aβ40 in conditioned medium of test compound treated cells expressing amyloid precursor protein. Cells stably expressing Amyloid Precursor Protein (APP) were plated at a density of 45K cells/well in 384 well plates (Corning/BioCoat 354663). The test compounds were then added to cells in 22-point dose response concentrations with the starting concentration being 62.5 μM. The compounds were diluted from stock solutions in DMSO and the final DMSO concentration of the test compounds on cells was 0.625%. The cells were cultivated overnight at 37° C. and 5% CO2 in DMEM supplemented with 10% FBS. After 24 h of incubation with the test compounds, the conditioned media was collected and the Aβ40 levels were determined using HTRF (Homogeneous Time Resolved Fluorescence). The IC50 of the compound was calculated from the percent of control or percent inhibition of Aβ40 as a function of the concentration of the test compound.
The HTRF to detect Aβ40 was performed in 384 well plates (Costar 3658). The antibody pair that were used to detect Aβ40 from cell supernatants were ConfAb40 antibody (Amgen in-house) and biotinylated 6E10 (BIOLEGEND). As an alternative to ConfAb40, a commercially available antibody, Anti-beta Amyloid 1-40 antibody [BDI350] from Abcam, Cambridge, Mass. 02139-1517 (Product code: ab20068), may be used in this assay. The concentrations were 0.35 μg/mL of ConfAb40 antibody and 1.33 μg/mL of 6E10-biotinylated antibody, as well as 4.5 μg/mL of Streptavidin Allophycocyanin Conjugate (ThermoFisher Scientific) in HTRF Buffer ([…], 1% BSA, 0.5% Tween 20).
The conditioned media was incubated with above antibodies and Streptavidin Allophycocyanin Conjugate for 30-60 minutes at 23° C. The final readout was performed on Envision from PerkinElmer.
(Time-resolved FRET reads energy transfer from a long-lived donor to a nearby acceptor.)
Target sequence in this assay (P56817 46-501, species assumed): as the sequence (P56817 46-501) above

Assay [3] deals with Recombinant CatD (Homo sapiens (Human), UniProt P07339). In words: In vitro enzymatic Cathepsin D (CatD) FRET assay. It counts as biochemical. The note with it: pH 3.5, read-out: Cat D Enzyme IC50.
Sequence of Recombinant CatD (P07339 65-412): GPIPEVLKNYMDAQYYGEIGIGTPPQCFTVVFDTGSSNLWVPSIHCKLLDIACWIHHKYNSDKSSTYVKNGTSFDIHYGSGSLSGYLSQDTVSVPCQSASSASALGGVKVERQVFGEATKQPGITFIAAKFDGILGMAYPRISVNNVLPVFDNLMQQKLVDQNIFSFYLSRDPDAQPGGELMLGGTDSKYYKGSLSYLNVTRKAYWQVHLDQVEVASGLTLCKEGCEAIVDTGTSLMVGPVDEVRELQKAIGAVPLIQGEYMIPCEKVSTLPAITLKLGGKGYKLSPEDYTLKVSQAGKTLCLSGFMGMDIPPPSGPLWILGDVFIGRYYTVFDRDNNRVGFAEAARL
Assay [4] deals with human recombinant BACE2 (Homo sapiens (Human), UniProt Q9Y5Z0). In words: In vitro enzymatic BACE2 FRET assay. The class given is biochemical. As to conditions: pH 4.5, read-out: BACE2 Enzyme IC50.
Sequence of human recombinant BACE2 (Q9Y5Z0 63-518): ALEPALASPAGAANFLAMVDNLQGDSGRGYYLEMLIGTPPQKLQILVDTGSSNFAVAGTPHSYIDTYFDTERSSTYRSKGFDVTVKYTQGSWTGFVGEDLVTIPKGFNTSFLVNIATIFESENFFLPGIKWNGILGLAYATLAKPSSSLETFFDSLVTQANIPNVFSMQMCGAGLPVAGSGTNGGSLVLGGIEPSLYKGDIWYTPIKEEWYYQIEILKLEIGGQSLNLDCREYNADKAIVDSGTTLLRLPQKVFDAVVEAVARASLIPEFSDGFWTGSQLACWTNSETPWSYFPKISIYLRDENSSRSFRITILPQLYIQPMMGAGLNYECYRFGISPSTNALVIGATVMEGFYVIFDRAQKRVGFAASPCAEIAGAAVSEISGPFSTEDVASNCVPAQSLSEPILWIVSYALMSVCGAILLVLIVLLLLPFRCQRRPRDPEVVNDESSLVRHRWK
Where [5] appears, read: Aβ40, 24 h incubation, read-out: BACE1 Cell IC50.

In the case of `C[C@]1(c2cc(C#Cc3ccc(C#N)cn3)cnc2F)N=C(N)S[C@@]2(CF)C[C@H]21` [Example 114, 6-((5-((1S,5S,6S)-3-amino-1-(fluoromethyl)-5-methyl-2-thia-4-azabicyclo[4.1.0]hept-3-en-5-yl)-6-fluoropyridin-3-yl)ethynyl)nicotinonitrile], the IC50 was 0.637 µM in assay [1], 0.677 µM in assay [2] (setting [5]), over 400 µM in assay [3] and 3.37 µM in assay [4].

Turning to `Cc1cn(C[C@]23C[C@H]2[C@@](CF)(c2cc(C#Cc4ccc(C#N)cn4)ccc2F)N=C(N)S3)nn1` [Example 115, 6-((3-((1S,5S,6S)-3-amino-5-(fluoromethyl)-1-((4-methyl-1H-1,2,3-triazol-1-yl)methyl)-2-thia-4-azabicyclo[4.1.0]hept-3-en-5-yl)-4-fluorophenyl)ethynyl)nicotinonitrile], the IC50 in assay [1] was 0.109 µM; in assay [2] (setting [5]) it was 0.142 µM; in assay [3] it was 1030 µM; in assay [4], 2.18 µM.

With `Cc1cc(C#N)cnc1C#Cc1ccc(F)c([C@@]2(CF)N=C(N)S[C@@]3(/C=C/C(=O)N4CCOCC4)C[C@H]32)c1` [Example 116, 6-((3-((1R,5S,6S)-3-amino-5-(fluoromethyl)-1-((E)-3-morpholino-3-oxoprop-1-en-1-yl)-2-thia-4-azabicyclo[4.1.0]hept-3-en-5-yl)-4-fluorophenyl)ethynyl)-5-methylnicotinonitrile], the IC50 in assay [1] was 0.005 µM; in assay [2] (setting [5]) it was 0.018 µM; in assay [3], 172 µM; in assay [4], 0.166 µM.

For the compound `NC1=N[C@](CF)(c2cc(C#Cc3ncc(Cl)cn3)ccc2F)[C@@H]2C[C@]2(/C=C/C(=O)N2CCOCC2)S1` [Example 117, (E)-3-((1R,5S,6S)-3-amino-5-(5-((5-chloropyrimidin-2-yl)ethynyl)-2-fluorophenyl)-5-(fluoromethyl)-2-thia-4-azabicyclo[4.1.0]hept-3-en-1-yl)-1-morpholinoprop-2-en-1-one], the IC50 in assay [1] came to 0.021 µM; in assay [2] (setting [5]), 0.029 µM; in assay [3], 169 µM; in assay [4], 0.012 µM.

Consider `Cc1cc(C#Cc2ccc(F)c([C@@]3(CF)N=C(N)S[C@@]4(/C=C/C(=O)N5CCOCC5)C[C@H]43)c2)sn1` [Example 118, (E)-3-((1R,5S,6S)-3-amino-5-(2-fluoro-5-((3-methylisothiazol-5-yl)ethynyl)phenyl)-5-(fluoromethyl)-2-thia-4-azabicyclo[4.1.0]hept-3-en-1-yl)-1-morpholinoprop-2-en-1-one], for which the IC50 in assay [1] came to 0.006 µM; in assay [2] (setting [5]), 0.023 µM; in assay [3] it was 26.2 µM; in assay [4], 0.017 µM.

For `N#Cc1ccc(C#Cc2ccc(F)c([C@@]3(CF)N=C(N)S[C@@]4(CCC(=O)N5CCOCC5)C[C@H]43)c2)nc1` [Example 119, 6-((3-((1S,5S,6S)-3-amino-5-(fluoromethyl)-1-(3-morpholino-3-oxopropyl)-2-thia-4-azabicyclo[4.1.0]hept-3-en-5-yl)-4-fluorophenyl)ethynyl)nicotinonitrile], the IC50 in assay [1] is 0.049 µM; in assay [2] (setting [5]), 0.06 µM; in assay [3] it was 188 µM; in assay [4], 0.126 µM.

Take `Cc1cc(C#N)cnc1C#Cc1ccc(F)c([C@@]2(CF)N=C(N)S[C@@]3(CCC(=O)N4CCOCC4)C[C@H]32)c1` [Example 120, 6-((3-((1S,5S,6S)-3-amino-5-(fluoromethyl)-1-(3-morpholino-3-oxopropyl)-2-thia-4-azabicyclo[4.1.0]hept-3-en-5-yl)-4-fluorophenyl)ethynyl)-5-methylnicotinonitrile]: the IC50 in assay [1] is 0.011 µM; in assay [2] (setting [5]) it was 0.052 µM; in assay [3], 190 µM; in assay [4], 0.179 µM.

As to `N#Cc1cnc(C#Cc2ccc(F)c([C@@]3(CF)N=C(N)S[C@@]4(/C=C/C(=O)N5CCOCC5)C[C@H]43)c2)nc1` [Example 121, 2-((3-((1R,5S,6S)-3-amino-5-(fluoromethyl)-1-((E)-3-morpholino-3-oxoprop-1-en-1-yl)-2-thia-4-azabicyclo[4.1.0]hept-3-en-5-yl)-4-fluorophenyl)ethynyl)pyrimidine-5-carbonitrile], the half-maximal inhibitory concentration (IC50) is 0.009 µM in assay [1], 1.9 µM in assay [2] (setting [5]), 143 µM in assay [3] and 0.047 µM in assay [4].

As for `N#Cc1ccc(C#Cc2ccc(F)c([C@@]3(CF)N=C(N)S[C@@]4(/C=C/C(=O)N5CCOCC5)C[C@H]43)c2)cc1` [Example 122, 4-((3-((1R,5S,6S)-3-amino-5-(fluoromethyl)-1-((E)-3-morpholino-3-oxoprop-1-en-1-yl)-2-thia-4-azabicyclo[4.1.0]hept-3-en-5-yl)-4-fluorophenyl)ethynyl)benzonitrile], the IC50 worked out at 0.01 µM in assay [1], 0.049 µM in assay [2] (setting [5]), 84.3 µM in assay [3] and 0.281 µM in assay [4].

Regarding `Cc1cc(C#N)cnc1C#Cc1ccc(F)c([C@@]2(C)N=C(N)S[C@@]3(C(=O)N(C)C)C[C@H]32)c1` [Example 123, (1S,5S,6S)-3-amino-5-(5-((5-cyano-3-methyl-2-pyridinyl)ethynyl)-2-fluorophenyl)-N,N,5-trimethyl-2-thia-4-azabicyclo[4.1.0]hept-3-ene-1-carboxamide], the IC50 in assay [1] came to 0.003 µM; in assay [2] (setting [5]), 0.003 µM; in assay [3] it was 236 µM; in assay [4], 0.099 µM.

Turning to `C#Cc1ccc(F)c([C@@]2(C)N=C(N)S[C@@]3(C(=O)N(C)C)C[C@H]32)c1` [Example 123d, (1S,5S,6S)-3-amino-5-(5-ethynyl-2-fluorophenyl)-N,N,5-trimethyl-2-thia-4-azabicyclo[4.1.0]hept-3-ene-1-carboxamide], the concentration for half-maximal inhibition (IC50) was determined as 0.378 µM in assay [1], 0.328 µM in assay [2] (setting [5]), 50.5 µM in assay [3] and 0.142 µM in assay [4].

With `N#Cc1cnc(C#Cc2ccc(F)c([C@@]3(CF)N=C(N)S[C@@]4(/C=C/C(=O)N5CCOCC5)C[C@H]43)c2)c(F)c1` [Example 124, 6-((3-((1R,5S,6S)-3-amino-5-(fluoromethyl)-1-((E)-3-morpholino-3-oxoprop-1-en-1-yl)-2-thia-4-azabicyclo[4.1.0]hept-3-en-5-yl)-4-fluorophenyl)ethynyl)-5-fluoronicotinonitrile], the IC50 in assay [1] was 0.049 µM; in assay [2] (setting [5]), 0.153 µM; in assay [3] it was 335 µM; in assay [4] it was 0.037 µM.

On to `N#Cc1ccc(C#Cc2ccc(F)c([C@@]3(CF)N=C(N)S[C@@]4(Cn5ccnc5)C[C@H]43)c2)nc1` [Example 125, 6-((3-((1S,5S,6S)-1-((1H-imidazol-1-yl)methyl)-3-amino-5-(fluoromethyl)-2-thia-4-azabicyclo[4.1.0]hept-3-en-5-yl)-4-fluorophenyl)ethynyl)nicotinonitrile], for which the half-inhibitory concentration (IC50) is 0.583 µM in assay [1], 0.118 µM in assay [2] (setting [5]), 248 µM in assay [3] and 8.08 µM in assay [4].

In the case of `Cc1cc(C#N)cnc1C#Cc1ccc(F)c([C@@]2(C)N=C(N)S[C@@]3(C#N)C[C@H]32)c1` [Example 126, (1S,5S,6S)-3-amino-5-(5-((5-cyano-3-methylpyridin-2-yl)ethynyl)-2-fluorophenyl)-5-methyl-2-thia-4-azabicyclo[4.1.0]hept-3-ene-1-carbonitrile], the IC50 is 0.021 µM in assay [1], 0.075 µM in assay [2] (setting [5]), 268 µM in assay [3] and 0.617 µM in assay [4].

Consider `Cc1cc(C#N)cnc1C#Cc1ccc(F)c([C@@]2(CF)N=C(N)S[C@@]3(C(=O)N(C)C)C[C@H]32)c1` [Example 127, (1S,5S,6S)-3-amino-5-(5-((5-cyano-3-methylpyridin-2-yl)ethynyl)-2-fluorophenyl)-5-(fluoromethyl)-N,N-dimethyl-2-thia-4-azabicyclo[4.1.0]hept-3-ene-1-carboxamide], for which the IC50 in assay [1] was determined as 0.002 µM; in assay [2], 0.022 µM; in assay [3] it was 969 µM; in assay [4], 0.077 µM.

For `Cc1cc(C#N)cnc1C#Cc1ccc(F)c([C@@]2(C)N=C(N)S[C@@]3(C(=O)N4CCCC4)C[C@H]32)c1` [Example 128, 6-((3-((1S,5S,6S)-3-amino-5-methyl-1-(pyrrolidine-1-carbonyl)-2-thia-4-azabicyclo[4.1.0]hept-3-en-5-yl)-4-fluorophenyl)ethynyl)-5-methylnicotinonitrile], the IC50 in assay [1] was determined as 0.002 µM; in assay [2] it was 0.002 µM; in assay [3] it was 508 µM; in assay [4], 0.423 µM.
